% of control and % of inhibition data for 6 compounds are collected here from ChEMBL document CHEMBL5465560, “Selectivity Literature for EUbOPEN Chemogenomic Library” (2024).

SMILES strings stand for the structures.

Experiment [1] has as its target T1, Peripheral plasma membrane protein CASK (Homo sapiens) (UniProt O14936).
T1 sequence (whole entry): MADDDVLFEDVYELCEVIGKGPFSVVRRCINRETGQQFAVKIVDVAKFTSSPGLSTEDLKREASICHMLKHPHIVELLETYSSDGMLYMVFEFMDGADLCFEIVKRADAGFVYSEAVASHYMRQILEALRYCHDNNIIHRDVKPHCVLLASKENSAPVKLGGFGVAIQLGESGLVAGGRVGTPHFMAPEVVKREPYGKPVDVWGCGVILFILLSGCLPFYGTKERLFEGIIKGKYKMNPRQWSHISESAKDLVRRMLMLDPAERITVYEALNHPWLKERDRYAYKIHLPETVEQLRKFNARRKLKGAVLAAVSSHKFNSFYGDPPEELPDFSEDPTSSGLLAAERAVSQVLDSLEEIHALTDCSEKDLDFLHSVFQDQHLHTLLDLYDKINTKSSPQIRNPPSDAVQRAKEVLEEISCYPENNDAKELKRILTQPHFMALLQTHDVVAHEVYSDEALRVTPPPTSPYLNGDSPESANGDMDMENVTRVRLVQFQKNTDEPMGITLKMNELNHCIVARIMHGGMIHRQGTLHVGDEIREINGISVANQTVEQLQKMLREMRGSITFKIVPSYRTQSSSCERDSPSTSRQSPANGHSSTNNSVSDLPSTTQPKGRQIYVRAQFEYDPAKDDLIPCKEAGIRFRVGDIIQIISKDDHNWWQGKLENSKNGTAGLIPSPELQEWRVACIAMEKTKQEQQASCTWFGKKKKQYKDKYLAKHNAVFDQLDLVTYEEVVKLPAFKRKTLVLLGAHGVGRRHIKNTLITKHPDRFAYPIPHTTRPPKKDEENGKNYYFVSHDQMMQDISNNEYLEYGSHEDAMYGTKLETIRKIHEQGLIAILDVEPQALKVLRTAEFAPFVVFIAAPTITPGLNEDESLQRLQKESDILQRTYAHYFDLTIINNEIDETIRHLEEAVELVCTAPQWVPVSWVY
In words: Selectivity interaction (KinomeScan (DiscoverX)) EUB0001049a CASK. As to conditions: at 1 µM.

In experiment [2] the target is T2, Serine/threonine-protein kinase RIO1 (Homo sapiens) (UniProt Q9BRS2).
T2 sequence (whole entry): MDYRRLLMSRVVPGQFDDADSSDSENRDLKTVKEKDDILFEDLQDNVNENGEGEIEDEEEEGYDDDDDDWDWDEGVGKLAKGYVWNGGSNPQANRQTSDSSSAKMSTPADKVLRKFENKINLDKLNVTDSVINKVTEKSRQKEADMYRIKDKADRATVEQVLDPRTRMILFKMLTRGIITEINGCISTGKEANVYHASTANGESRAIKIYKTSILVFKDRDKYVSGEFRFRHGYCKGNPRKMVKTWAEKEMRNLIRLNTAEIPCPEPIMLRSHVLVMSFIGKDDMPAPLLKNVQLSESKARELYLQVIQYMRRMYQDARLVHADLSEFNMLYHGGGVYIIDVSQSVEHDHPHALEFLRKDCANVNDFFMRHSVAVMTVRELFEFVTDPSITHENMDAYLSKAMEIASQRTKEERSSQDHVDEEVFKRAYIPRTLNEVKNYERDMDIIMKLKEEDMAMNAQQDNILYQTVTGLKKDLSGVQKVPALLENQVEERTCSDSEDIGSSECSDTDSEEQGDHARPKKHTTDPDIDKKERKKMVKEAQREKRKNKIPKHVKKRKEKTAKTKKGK
The experiment is described as follows: Selectivity interaction (KinomeScan (DiscoverX)) EUB0000655a RIOK1. The settings on record: at 10 µM.

The target of experiment [3] is T3, Inhibitor of nuclear factor kappa-B kinase subunit epsilon (Homo sapiens) (UniProt Q14164).
T3 sequence (whole entry): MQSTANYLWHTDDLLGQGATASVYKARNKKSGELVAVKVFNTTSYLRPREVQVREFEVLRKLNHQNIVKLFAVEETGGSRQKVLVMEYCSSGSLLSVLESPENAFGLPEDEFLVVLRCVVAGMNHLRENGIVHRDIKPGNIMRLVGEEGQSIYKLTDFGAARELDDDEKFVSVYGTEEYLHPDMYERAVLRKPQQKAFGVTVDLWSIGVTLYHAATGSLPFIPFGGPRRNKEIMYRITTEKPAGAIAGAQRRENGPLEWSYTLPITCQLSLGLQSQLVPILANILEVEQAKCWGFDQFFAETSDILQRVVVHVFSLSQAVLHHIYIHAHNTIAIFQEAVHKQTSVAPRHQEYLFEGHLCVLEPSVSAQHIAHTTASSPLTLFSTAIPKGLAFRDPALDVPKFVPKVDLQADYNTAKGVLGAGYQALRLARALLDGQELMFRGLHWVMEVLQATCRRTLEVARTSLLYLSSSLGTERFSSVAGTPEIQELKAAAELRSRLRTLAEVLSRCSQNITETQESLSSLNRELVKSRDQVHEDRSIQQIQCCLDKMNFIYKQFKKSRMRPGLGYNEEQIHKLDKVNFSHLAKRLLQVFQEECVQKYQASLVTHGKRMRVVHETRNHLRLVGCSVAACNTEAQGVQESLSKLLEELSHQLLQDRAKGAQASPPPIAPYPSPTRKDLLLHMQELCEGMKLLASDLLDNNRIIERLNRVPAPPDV
The experiment is described as follows: Selectivity interaction (KinomeScan (DiscoverX)) EUB0000695a IKBKE. As to conditions: at 100 nM.

In experiment [4] the target is CDK9/Cyclin K (Homo sapiens) (UniProt P50750+O75909). In words: Selectivity interaction (LanthaScreen Eu Kinase Binding Assay) EUB0001632a CDK9. Type of experiment: protein-complex assay. The settings on record: at 10 µM. Background: TR-FRET usually uses a lanthanide donor and a delayed reading to cut background.
The target of experiment [5] is Calcium/calmodulin-dependent protein kinase type 1 (Homo sapiens) (UniProt Q14012). In words: Selectivity interaction (ActivX KiNativ screen (kinase selectivity in THP-1 cell lysates)) EUB0000639a CAMK1. Type of experiment: subcellular. The settings on record: lysate, at 1 µM.
Chain of Calcium/calmodulin-dependent protein kinase type 1 (Homo sapiens) (Q14012 whole entry, looked up): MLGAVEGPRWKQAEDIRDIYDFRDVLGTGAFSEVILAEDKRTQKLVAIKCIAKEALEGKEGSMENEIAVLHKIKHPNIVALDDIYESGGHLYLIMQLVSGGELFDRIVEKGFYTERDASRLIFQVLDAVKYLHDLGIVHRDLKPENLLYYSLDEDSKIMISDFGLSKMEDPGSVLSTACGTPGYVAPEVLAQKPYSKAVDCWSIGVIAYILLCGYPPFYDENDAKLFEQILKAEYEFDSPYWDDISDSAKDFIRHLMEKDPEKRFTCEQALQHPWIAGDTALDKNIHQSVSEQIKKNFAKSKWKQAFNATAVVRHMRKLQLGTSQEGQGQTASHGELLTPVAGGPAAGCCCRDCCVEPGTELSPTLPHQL
The target of experiment [6] is Glycogen synthase kinase-3 beta (Homo sapiens, UniProt P49841). The experiment is described as follows: Selectivity interaction (KinomeScan (DiscoverX)) EUB0001619a GSK3B. As to conditions: at 1 µM.
Chain of Glycogen synthase kinase-3 beta (P49841 whole entry, looked up): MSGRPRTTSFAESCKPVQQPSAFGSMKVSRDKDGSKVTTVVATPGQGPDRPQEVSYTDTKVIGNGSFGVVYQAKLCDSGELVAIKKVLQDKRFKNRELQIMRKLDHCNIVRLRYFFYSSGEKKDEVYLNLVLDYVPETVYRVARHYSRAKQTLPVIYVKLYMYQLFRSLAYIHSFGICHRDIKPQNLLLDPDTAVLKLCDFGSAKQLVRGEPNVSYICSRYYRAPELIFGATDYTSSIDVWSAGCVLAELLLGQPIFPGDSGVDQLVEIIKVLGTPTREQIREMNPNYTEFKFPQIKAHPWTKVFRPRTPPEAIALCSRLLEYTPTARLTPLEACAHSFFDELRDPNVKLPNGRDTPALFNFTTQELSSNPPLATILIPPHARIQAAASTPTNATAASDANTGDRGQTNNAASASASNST
Experiment [7] has as its target T4, Scaffold protein ILK (Homo sapiens) (UniProt Q13418).
T4 sequence (whole entry): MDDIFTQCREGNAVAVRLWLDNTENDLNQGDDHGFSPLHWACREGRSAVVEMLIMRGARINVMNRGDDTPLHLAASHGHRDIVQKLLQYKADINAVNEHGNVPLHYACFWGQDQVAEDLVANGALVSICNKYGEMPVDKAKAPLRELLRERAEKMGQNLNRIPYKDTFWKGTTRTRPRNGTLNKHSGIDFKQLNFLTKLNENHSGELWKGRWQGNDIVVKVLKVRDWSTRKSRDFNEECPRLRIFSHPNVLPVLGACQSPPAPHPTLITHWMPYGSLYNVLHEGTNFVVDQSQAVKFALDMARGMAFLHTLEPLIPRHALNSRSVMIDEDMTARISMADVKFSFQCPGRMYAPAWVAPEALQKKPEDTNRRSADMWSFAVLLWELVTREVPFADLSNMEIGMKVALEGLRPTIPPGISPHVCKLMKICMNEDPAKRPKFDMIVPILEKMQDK
The experiment is described as follows: Selectivity interaction (ActivX KiNativ screen (ex vivo kinase selectivity in human PBMCs)) EUB0001619a ILK. Type of experiment: cell-based. The settings on record: PBMC, at 1 µM.

Regarding `COc1cc(Nc2nc(C)cc(-c3cnn4nc(OC)ccc34)n2)cc(C(F)(F)F)c1`, in experiment [1], the % of control stood at 65%.

Compound `CN(C)CCOc1ccc(-c2nc(-c3ccncc3)c(-c3ccc4c(c3)CC/C4=N\O)[nH]2)cc1` yielded a % of control in experiment [2] of 97%.

On to `Cc1cc(F)c(C(=O)Nc2cccc(-c3nncn3C(C)C)n2)cc1-n1cnc(C2CC2)c1`, for which the % of control in experiment [3] stood at 100%.

With `Cn1cc(-n2cnc3c(NCc4nc5cc(Cl)c(Cl)cc5[nH]4)nc(N4CCOCC4)nc32)cn1`, the % of inhibition in experiment [4] was -32.1%.

For the compound `CC[C@@H]1[C@H](F)C(=O)N[C@@H]1COc1nccc2cc(C(N)=O)c(OC)cc12` [ZIMLOVISERTIB], the % of inhibition in experiment [5] was -14.5%.

Turning to `N#Cc1cccc(-c2c[nH]c3ncnc(N4CCOCC4)c23)c1`, the % of control in experiment [6] was 94%. Also, in experiment [7], the % of inhibition is -32%.
